Reference: ChEMBL document CHEMBL3853262 (Medchemcomm, 2016)
The source made the active and inactive calls. The calls are words filed in the database; no cut-off is given here.

Experiments:
NTERA-2-cl-D1 [1] = test: Proapoptotic activity in human NT2/D1 cells assessed as late apoptotic cells at 25 uM after 1 hr by annexin V/propidium iodide staining-based capillary cytometric method relative to control; assay type: functional
NTERA-2-cl-D1 [2] = test: Proapoptotic activity in human NT2/D1 cells assessed as necrotic cells at 25 uM after 7 hrs by annexin V/propidium iodide staining-based capillary cytometric method relative to control; assay type: functional
NTERA-2-cl-D1 [3] = test: Induction of apoptosis in human NT2/D1 cells assessed as activation of caspase 8/9 at 25 uM by 7-AAD staining-based capillary cytometric method; assay type: functional, cell-based
NTERA-2-cl-D1 [4] = test: Proapoptotic activity in human NT2/D1 cells assessed as late apoptotic cells at 25 uM after 3 hrs by annexin V/propidium iodide staining-based capillary cytometric method relative to control; assay type: functional
NTERA-2-cl-D1 [5] = test: Induction of apoptosis in human NT2/D1 cells assessed as late apoptotic cells at 25 uM after 4 hrs in presence of pan caspase inhibitor Z-VAD-fmk by annexin V/propidium iodide staining-based capillary cytometric method (reference value: 0.70%); assay type: functional
THP-1 [6] = test: Proapoptotic activity in human THP1 cells assessed as late apoptotic cells at 25 uM after 5 hrs by annexin V/propidium iodide staining-based capillary cytometric method relative to control; assay type: functional
NTERA-2-cl-D1 [7] = test: Proapoptotic activity in human NT2/D1 cells assessed as necrotic cells at 25 uM after 5 hrs by annexin V/propidium iodide staining-based capillary cytometric method relative to control; assay type: functional
NTERA-2-cl-D1 [8] = test: Proapoptotic activity in human NT2/D1 cells assessed as viable cells at 25 uM after 3 hrs by annexin V/propidium iodide staining-based capillary cytometric method relative to control; assay type: functional; conditions: NTERA-2-cl-D1, 3 h, read-out: Activity
THP-1 [9] = test: Induction of apoptosis in human THP1 cells assessed as activation of caspase 3/7 by measuring DNA fragmentation at 25 uM after 3 hrs by 7-AAD staining-based capillary cytometric method; assay type: functional, cell-based
THP-1 [10] = test: Proapoptotic activity in human THP1 cells assessed as early apoptotic cells at 25 uM after 3 hrs by annexin V/propidium iodide staining-based capillary cytometric method relative to control; assay type: functional
ASPC1 = test: Proapoptotic activity in human AsPC1 cells by annexin V-FITC/propidium iodide staining-based capillary cytometric method; assay type: functional, cell-based
THP-1 [11] = test: Proapoptotic activity in human THP1 cells assessed as viable cells at 25 uM after 1 hr by annexin V/propidium iodide staining-based capillary cytometric method relative to control; assay type: functional; conditions: THP-1, 1 h, read-out: Activity
THP-1 [12] = test: Induction of apoptosis in human THP1 cells assessed as activation of caspase 8/9 at 25 uM by 7-AAD staining-based capillary cytometric method; assay type: functional, cell-based
THP-1 [13] = test: Proapoptotic activity in human THP1 cells assessed as early apoptotic cells at 25 uM after 5 hrs by annexin V/propidium iodide staining-based capillary cytometric method relative to control; assay type: functional
NTERA-2-cl-D1 [14] = test: Proapoptotic activity in human NT2/D1 cells assessed as viable cells at 25 uM after 7 hrs by annexin V/propidium iodide staining-based capillary cytometric method relative to control; assay type: functional; conditions: NTERA-2-cl-D1, 7 h, read-out: Activity
THP-1 [15] = test: Proapoptotic activity in human THP1 cells assessed as necrotic cells at 25 uM after 3 hrs by annexin V/propidium iodide staining-based capillary cytometric method relative to control; assay type: functional
NTERA-2-cl-D1 [16] = test: Induction of apoptosis in human NT2/D1 cells assessed as viable cells at 25 uM after 4 hrs by annexin V/propidium iodide staining-based capillary cytometric method (reference value: 95.80%); assay type: functional; conditions: NTERA-2-cl-D1, 4 h, read-out: Activity
NTERA-2-cl-D1 [17] = test: Proapoptotic activity in human NT2/D1 cells assessed as viable cells at 25 uM after 5 hrs by annexin V/propidium iodide staining-based capillary cytometric method relative to control; assay type: functional; conditions: NTERA-2-cl-D1, 5 h, read-out: Activity
THP-1 [18] = test: Induction of apoptosis in human THP1 cells assessed as […] cells at 25 uM after 4 hrs by annexin V/propidium iodide staining-based capillary cytometric method (reference value: 96.40%); assay type: functional
THP-1 [19] = test: Induction of apoptosis in human THP1 cells assessed as late necrotic cells at 25 uM after 4 hrs in presence of pan caspase inhibitor Z-VAD-fmk by annexin V/propidium iodide staining-based capillary cytometric method (reference value: 0.04%); assay type: functional
NTERA-2-cl-D1 [20] = test: Proapoptotic activity in human NT2/D1 cells assessed as late apoptotic cells at 25 uM after 5 hrs by annexin V/propidium iodide staining-based capillary cytometric method relative to control; assay type: functional
THP-1 [21] = test: Proapoptotic activity in human THP1 cells assessed as necrotic cells at 25 uM after 5 hrs by annexin V/propidium iodide staining-based capillary cytometric method relative to control; assay type: functional
NTERA-2-cl-D1 [22] = test: Induction of apoptosis in human NT2/D1 cells assessed as necrotic cells at 25 uM after 4 hrs by annexin V/propidium iodide staining-based capillary cytometric method (reference value: 0.10%); assay type: functional
NTERA-2-cl-D1 [23] = test: Induction of apoptosis in human NT2/D1 cells assessed as activation of caspase 3/7 by measuring DNA fragmentation at 25 uM after 3 hrs by 7-AAD staining-based capillary cytometric method; assay type: functional, cell-based
THP-1 [24] = test: Proapoptotic activity in human THP1 cells assessed as late apoptotic cells at 25 uM after 1 hr by annexin V/propidium iodide staining-based capillary cytometric method relative to control; assay type: functional
BXPC-3 = test: Proapoptotic activity in human BxPC3 cells by annexin V-FITC/propidium iodide staining-based capillary cytometric method; assay type: functional, cell-based
THP-1 [25] = test: Induction of DNA fragmentation in human THP1 cells at 25 uM after 6 to 24 hrs by propidium iodide/RNase staining-based capillary cytometric method; assay type: functional, cell-based
THP-1 [26] = test: Proapoptotic activity in human THP1 cells assessed as necrotic cells at 25 uM after 1 hr by annexin V/propidium iodide staining-based capillary cytometric method relative to control; assay type: functional
THP-1 [27] = test: Induction of apoptosis in human THP1 cells assessed as late apoptotic cells at 25 uM after 4 hrs by annexin V/propidium iodide staining-based capillary cytometric method (reference value: 0.34%); assay type: functional

CNc1nc(-c2cccc(NC(=O)c3cc4ccccc4[nH]3)c2)c[nH]1.Cl
Activity (NTERA-2-cl-D1 [1]): 3.59% | Activity (NTERA-2-cl-D1 [2]): 0% | Activity (NTERA-2-cl-D1 [3]): Active | Activity (NTERA-2-cl-D1 [4]): 3.24% | Activity (NTERA-2-cl-D1 [5]): 2.87% | Activity (THP-1 [6]): 38.05% | Activity (NTERA-2-cl-D1 [7]): 0.6% | viability at 25 µM (NTERA-2-cl-D1 [8]): 73.9% | Activity (THP-1 [9]): Active | Activity (THP-1 [10]): 5.81% | EC50 (ASPC1): 32 µM | viability at 25 µM (THP-1 [11]): 95.7% | Activity (THP-1 [12]): Active | Activity (THP-1 [13]): 33.25% | viability at 25 µM (NTERA-2-cl-D1 [14]): 31.2% | Activity (THP-1 [15]): 0.3% | viability at 25 µM (NTERA-2-cl-D1 [16]): 70.7% | viability at 25 µM (NTERA-2-cl-D1 [17]): 47% | Activity (THP-1 [18]): 5.34% | Activity (THP-1 [19]): 0.1% | Activity (NTERA-2-cl-D1 [20]): 6.08% | Activity (THP-1 [21]): 0.1% | Activity (NTERA-2-cl-D1 [22]): 0.3% | Activity (NTERA-2-cl-D1 [23]): Active | Activity (THP-1 [24]): 2.66% | EC50 (BXPC-3): 58 µM | Activity (THP-1 [25]): Active | Activity (THP-1 [26]): 0.2% | Activity (THP-1 [27]): 89.44%
